# Activity calls are given as the source filed them. The rule behind the calls is not given here.
# Tests used:
# Format in all cases: functional
# MDA-MB-468 [1] = experiment: Growth inhibition of human MDA-MB-468 cells assessed as growth inhibition at 10 uM by sulforhodamine B assay; settings: read-out: GI
# SN12C = experiment: Growth inhibition of human SN12C cells assessed as growth inhibition at 10 uM by sulforhodamine B assay; settings: read-out: GI
# ACHN = experiment: Growth inhibition of human ACHN cells assessed as growth inhibition at 10 uM by sulforhodamine B assay; settings: read-out: GI
# 786-0 = experiment: Growth inhibition of human 786-0 cells assessed as growth inhibition at 10 uM by sulforhodamine B assay
# OVCAR-8 [2] = experiment: Growth inhibition of human OVCAR8 cells assessed as growth inhibition at 10 uM by sulforhodamine B assay; settings: read-out: GI
# HL-60(TB) = experiment: Growth inhibition of human HL-60(TB) cells assessed as cell growth at 10 uM by sulforhodamine B assay; settings: read-out: Activity
# OVCAR-5 = experiment: Growth inhibition of human OVCAR5 cells assessed as growth inhibition at 10 uM by sulforhodamine B assay; settings: read-out: GI
# OVCAR-4 [3] = experiment: Growth inhibition of human OVCAR4 cells assessed as growth inhibition at 10 uM by sulforhodamine B assay; settings: read-out: GI
# OVCAR-3 = experiment: Growth inhibition of human OVCAR3 cells assessed as growth inhibition at 10 uM by sulforhodamine B assay; settings: read-out: GI
# UACC-62 = experiment: Growth inhibition of human UACC62 cells assessed as growth inhibition at 10 uM by sulforhodamine B assay
# SK-MEL-5 = experiment: Growth inhibition of human SK-MEL-5 cells assessed as growth inhibition at 10 uM by sulforhodamine B assay; settings: read-out: GI
# LOX IMVI = experiment: Growth inhibition of human LOXIMVI cells assessed as growth inhibition at 10 uM by sulforhodamine B assay; settings: read-out: GI
# Malme-3M [4] = experiment: Growth inhibition of human MALME-3M cells assessed as growth inhibition at 10 uM by sulforhodamine B assay; settings: read-out: GI
# SF-295 [5] = experiment: Growth inhibition of human SF295 cells assessed as growth inhibition at 10 uM by sulforhodamine B assay
# HCT-15 [6] = experiment: Growth inhibition of human HCT15 cells assessed as growth inhibition at 10 uM by sulforhodamine B assay; settings: read-out: GI
# HCT-116 [7] = experiment: Growth inhibition of human HCT116 cells assessed as growth inhibition at 10 uM by sulforhodamine B assay; settings: read-out: GI
# NCI-H460 = experiment: Growth inhibition of human NCI-H460 cells assessed as growth inhibition at 10 uM by sulforhodamine B assay; settings: read-out: GI
# NCI-H322M = experiment: Growth inhibition of human NCI-H322M cells assessed as growth inhibition at 10 uM by sulforhodamine B assay
# NCI-H226 = experiment: Growth inhibition of human NCI-H226 cells assessed as growth inhibition at 10 uM by sulforhodamine B assay; settings: read-out: GI
# HOP-62 [8] = experiment: Growth inhibition of human HOP62 cells assessed as growth inhibition at 10 uM by sulforhodamine B assay; settings: read-out: GI
# RPMI-8226 [9] = experiment: Growth inhibition of human RPMI8226 cells assessed as growth inhibition at 10 uM by sulforhodamine B assay; settings: read-out: GI
# MOLT-4 = experiment: Growth inhibition of human MOLT4 cells assessed as growth inhibition at 10 uM by sulforhodamine B assay; settings: read-out: GI
# K562 = experiment: Growth inhibition of human K562 cells assessed as growth inhibition at 10 uM by sulforhodamine B assay; settings: read-out: GI
# MDA-MB-468 [10] = experiment: Growth inhibition of human MDA-MB-468 cells assessed as cell growth at 10 uM by sulforhodamine B assay; settings: read-out: Activity
# UO-31 = experiment: Growth inhibition of human UO31 cells assessed as cell growth at 10 uM by sulforhodamine B assay; settings: read-out: Activity
# TK-10 = experiment: Growth inhibition of human TK10 cells assessed as cell growth at 10 uM by sulforhodamine B assay; settings: read-out: Activity
# A498 = experiment: Growth inhibition of human A498 cells assessed as cell growth at 10 uM by sulforhodamine B assay; settings: read-out: Activity
# SK-OV-3 = experiment: Growth inhibition of human SKOV3 cells assessed as cell growth at 10 uM by sulforhodamine B assay; settings: read-out: Activity
# [11] = Growth inhibition of human NCI-ADR-RES cells assessed as cell growth at 10 uM by sulforhodamine B assay; settings: read-out: Activity
# OVCAR-8 [12] = experiment: Growth inhibition of human OVCAR8 cells assessed as cell growth at 10 uM by sulforhodamine B assay; settings: read-out: Activity
# OVCAR-4 [13] = experiment: Growth inhibition of human OVCAR4 cells assessed as cell growth at 10 uM by sulforhodamine B assay; settings: read-out: Activity
# IGROV-1 = experiment: Growth inhibition of human IGROV1 cells assessed as cell growth at 10 uM by sulforhodamine B assay; settings: read-out: Activity
# UACC-257 = experiment: Growth inhibition of human UACC257 cells assessed as cell growth at 10 uM by sulforhodamine B assay; settings: read-out: Activity
# SK-MEL-28 = experiment: Growth inhibition of human SK-MEL-28 cells assessed as cell growth at 10 uM by sulforhodamine B assay; settings: read-out: Activity
# MDA-MB-435 = experiment: Growth inhibition of human MDA-MB-435 cells assessed as cell growth at 10 uM by sulforhodamine B assay; settings: read-out: Activity
# Malme-3M [14] = experiment: Growth inhibition of human MALME-3M cells assessed as cell growth at 10 uM by sulforhodamine B assay; settings: read-out: Activity
# SNB-75 = experiment: Growth inhibition of human SNB75 cells assessed as cell growth at 10 uM by sulforhodamine B assay; settings: read-out: Activity
# SF-295 [15] = experiment: Growth inhibition of human SF295 cells assessed as cell growth at 10 uM by sulforhodamine B assay; settings: read-out: Activity
# SW-620 = experiment: Growth inhibition of human SW620 cells assessed as cell growth at 10 uM by sulforhodamine B assay; settings: read-out: Activity
# HCT-15 [16] = experiment: Growth inhibition of human HCT15 cells assessed as cell growth at 10 uM by sulforhodamine B assay; settings: read-out: Activity
# HCT-116 [17] = experiment: Growth inhibition of human HCT116 cells assessed as cell growth at 10 uM by sulforhodamine B assay; settings: read-out: Activity
# [18] = Growth inhibition of human HCC2998 cells assessed as cell growth at 10 uM by sulforhodamine B assay; settings: HCC 2998, read-out: Activity
# COLO 205 = experiment: Growth inhibition of human COLO205 cells assessed as cell growth at 10 uM by sulforhodamine B assay; settings: read-out: Activity
# NCI-H522 = experiment: Growth inhibition of human NCI-H522 cells assessed as cell growth at 10 uM by sulforhodamine B assay; settings: read-out: Activity
# HOP-62 [19] = experiment: Growth inhibition of human HOP62 cells assessed as cell growth at 10 uM by sulforhodamine B assay; settings: read-out: Activity
# A549 = experiment: Growth inhibition of human A549/ATCC cells assessed as cell growth at 10 uM by sulforhodamine B assay; settings: read-out: Activity
# SR = experiment: Growth inhibition of human SR cells assessed as cell growth at 10 uM by sulforhodamine B assay; settings: read-out: Activity
# RPMI-8226 [20] = experiment: Growth inhibition of human RPMI8226 cells assessed as cell growth at 10 uM by sulforhodamine B assay; settings: read-out: Activity
smiles,measurement,setting,value
C/C=C(/C)C(=O)O[C@@H]1CC(C)(C)C[C@H]2C3=CC[C@@H]4[C@@]5(C)CC[C@H](O)C(C)(C)[C@@H]5CC[C@@]4(C)[C@]3(C)CC[C@@]12C(=O)O [Reduced Lantadene A],inhibition of growth at 10 µM,MDA-MB-468 [1],33.9%
same,inhibition of growth at 10 µM,SN12C,94.2%
same,inhibition of growth at 10 µM,ACHN,91.9%
same,growth inhibition (GI),786-0,Active
same,inhibition of growth at 10 µM,OVCAR-8 [2],42.3%
same,growth at 10 µM,HL-60(TB),-50.8%
same,inhibition of growth at 10 µM,OVCAR-5,36%
same,inhibition of growth at 10 µM,OVCAR-4 [3],36.8%
same,inhibition of growth at 10 µM,OVCAR-3,68%
same,growth inhibition (GI),UACC-62,Active
same,inhibition of growth at 10 µM,SK-MEL-5,46.8%
same,inhibition of growth at 10 µM,LOX IMVI,57.3%
same,inhibition of growth at 10 µM,Malme-3M [4],64.8%
same,growth inhibition (GI),SF-295 [5],Active
same,inhibition of growth at 10 µM,HCT-15 [6],78.8%
same,inhibition of growth at 10 µM,HCT-116 [7],80%
same,inhibition of growth at 10 µM,NCI-H460,64.9%
same,growth inhibition (GI),NCI-H322M,Active
same,inhibition of growth at 10 µM,NCI-H226,57.9%
same,inhibition of growth at 10 µM,HOP-62 [8],75.7%
same,inhibition of growth at 10 µM,RPMI-8226 [9],78.9%
same,inhibition of growth at 10 µM,MOLT-4,58.6%
same,inhibition of growth at 10 µM,K562,64.1%
same,growth at 10 µM,MDA-MB-468 [10],66.1%
same,growth at 10 µM,UO-31,-26%
same,growth at 10 µM,TK-10,66.8%
same,growth at 10 µM,A498,-31.8%
same,growth at 10 µM,SK-OV-3,41.8%
same,growth at 10 µM,[11],69.8%
same,growth at 10 µM,OVCAR-8 [12],57.7%
same,growth at 10 µM,OVCAR-4 [13],63.2%
same,growth at 10 µM,IGROV-1,35.1%
same,growth at 10 µM,UACC-257,60.6%
same,growth at 10 µM,SK-MEL-28,33.7%
same,growth at 10 µM,MDA-MB-435,64.9%
same,growth at 10 µM,Malme-3M [14],35.2%
same,growth at 10 µM,SNB-75,11.9%
same,growth at 10 µM,SF-295 [15],-14.4%
same,growth at 10 µM,SW-620,39.1%
same,growth at 10 µM,HCT-15 [16],21.2%
same,growth at 10 µM,HCT-116 [17],20%
same,growth at 10 µM,[18],26.4%
same,growth at 10 µM,COLO 205,28.2%
same,growth at 10 µM,NCI-H522,49.7%
same,growth at 10 µM,HOP-62 [19],24.3%
same,growth at 10 µM,A549,27.4%
same,growth at 10 µM,SR,61.9%
same,growth at 10 µM,RPMI-8226 [20],21.1%
